Test results reported in ChEMBL document CHEMBL1157062, “Malyngolide dimer, a bioactive symmetric cyclodepside from the panamanian marine cyanobacterium Lyngbya majuscula” (J Nat Prod, 2010).

Legend:
[1] = biological target: T1, NAD-dependent protein deacetylase sirtuin-2 (Homo sapiens) (UniProt Q8IXJ6); test: Inhibition of SIRT2
T1 sequence (whole entry): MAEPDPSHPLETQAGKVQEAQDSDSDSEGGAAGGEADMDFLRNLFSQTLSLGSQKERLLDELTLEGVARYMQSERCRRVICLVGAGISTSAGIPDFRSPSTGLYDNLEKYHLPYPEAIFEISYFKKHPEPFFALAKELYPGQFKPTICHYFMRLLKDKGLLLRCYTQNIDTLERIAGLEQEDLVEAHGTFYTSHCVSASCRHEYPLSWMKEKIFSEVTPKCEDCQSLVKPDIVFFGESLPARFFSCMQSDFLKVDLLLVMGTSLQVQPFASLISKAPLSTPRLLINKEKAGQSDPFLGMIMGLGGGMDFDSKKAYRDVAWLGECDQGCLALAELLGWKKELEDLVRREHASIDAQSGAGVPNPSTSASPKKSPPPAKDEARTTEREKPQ

[2] = Cytotoxicity against human NCI-H460 cells assessed as cell viability at 9 uM after 48 hrs by MTT assay; assay type: cell-based; conditions: read-out: Activity
Plasmodium falciparum = test: Antiplasmodial activity against Plasmodium falciparum W2 assessed as picogreen-DNA intercalation by microfluorimetric assay; assay type: functional, organism-based
[3] = biological target: T1, NAD-dependent protein deacetylase sirtuin-2 (Homo sapiens); test: Inhibition of SIRT2 at 50 uM
[4] = Cytotoxicity against human NCI-H460 cells assessed as cell viability at 55 uM after 48 hrs by MTT assay; assay type: cell-based; conditions: read-out: Activity

Row | INH [1] [µM] | IC50 (Plasmodium falciparum) [µM] | inhibition [3] [%] | Structure (SMILES) | viability at 48 h, 9 µM [2] [%] | viability at 48 h, 55 µM [4] [%]
1 | 0.176 |  |  | CCCCCCCCCCC[C@]1(CO)CCCC(=O)O[C@](CO)(CCCCCCCCCCC)CCCC(=O)O1 |  | 
2 |  | 19 | 30 | CCCCCCCCC[C@@]1(CO)CC[C@@H](C)C(=O)O[C@@](CO)(CCCCCCCCC)CC[C@@H](C)C(=O)O1 | 110 | 10
